The text below walks through data of patent publication US8703768B2, “Nitrogen containing heteroaryl compounds” (Hoffmann-La Roche Inc., priority 2010, dated 2014).

This test deals with human PDE10A (Homo sapiens (Human), UniProt Q9Y233). The test is described as follows: human PDE10A full length Scintillation Proximity Assay (SPA). Format: biochemical. The following applies: 50 nM cGMP and 50 nM [3H]-cGMP, 20 minutes at room temperature; read-out: PDE10A inhibition IC50. An outline of the steps: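 Full-length enzyme incubated with compounds; reaction started with cGMP plus [^3H]-cGMP substrate and run 20 min at room temperature. Stopped with yttrium silicate SPA beads in 18 mM zinc sulphate, 1 h shaking, then scintillation counting; background from enzyme-free wells.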
Sequence of human PDE10A (Q9Y233 other isoform, or with tags, fused parts or gaps): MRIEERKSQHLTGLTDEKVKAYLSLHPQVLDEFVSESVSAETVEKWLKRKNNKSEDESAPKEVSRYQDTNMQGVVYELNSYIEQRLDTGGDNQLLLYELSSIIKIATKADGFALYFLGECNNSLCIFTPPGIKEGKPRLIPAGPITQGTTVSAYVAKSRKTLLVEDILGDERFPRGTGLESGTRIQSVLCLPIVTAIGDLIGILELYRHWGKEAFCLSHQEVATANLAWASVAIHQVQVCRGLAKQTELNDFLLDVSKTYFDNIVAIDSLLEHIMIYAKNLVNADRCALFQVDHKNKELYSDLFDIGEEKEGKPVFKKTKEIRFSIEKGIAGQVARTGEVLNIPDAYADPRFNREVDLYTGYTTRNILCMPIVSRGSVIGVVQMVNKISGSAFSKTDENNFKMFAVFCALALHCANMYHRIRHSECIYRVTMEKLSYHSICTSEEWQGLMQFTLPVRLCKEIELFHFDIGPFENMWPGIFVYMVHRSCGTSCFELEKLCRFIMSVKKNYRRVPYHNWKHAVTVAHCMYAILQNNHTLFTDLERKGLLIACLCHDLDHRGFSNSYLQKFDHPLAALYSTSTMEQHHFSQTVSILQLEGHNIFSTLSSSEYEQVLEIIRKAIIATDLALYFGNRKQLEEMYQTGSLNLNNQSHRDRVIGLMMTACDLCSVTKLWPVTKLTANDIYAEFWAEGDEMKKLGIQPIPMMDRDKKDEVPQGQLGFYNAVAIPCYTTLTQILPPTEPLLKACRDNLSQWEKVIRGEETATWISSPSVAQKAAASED

Consider `CNC(=O)c1c(NC(=O)c2nc(C3CC3)cnc2Nc2cncnc2)cnn1CC1CCO1` (stereo not shown) [Example 282, 6-Cyclopropyl-3-(pyrimidin-5-ylamino)-pyrazine-2-carboxylic acid (5-methylcarbamoyl-1-oxetan-2-ylmethyl-1H-pyrazol-4-yl)-amide], for which the half-maximal inhibitory concentration (IC50) (in general, the concentration that gives 50% inhibition) was 2 nM. Regarding `CC(C)(O)CNC(=O)c1c(NC(=O)c2nc(C3CC3)cnc2Nc2cncnc2)cnn1CC1CCO1` (stereo not shown) [Example 283, 6-Cyclopropyl-3-(pyrimidin-5-ylamino)-pyrazine-2-carboxylic acid [5-(2-hydroxy-2-methyl-propylcarbamoyl)-1-oxetan-2-ylmethyl-1H-pyrazol-4-yl]-amide], the IC50 was 1.1 nM.

Turning to `CN(C)C(=O)c1cc(F)c(F)cc1NC(=O)c1nc(C2CC2)cnc1Nc1cncnc1` [Example 284, 6-Cyclopropyl-3-(pyrimidin-5-ylamino)-pyrazine-2-carboxylic acid (2-dimethylcarbamoyl-4,5-difluoro-phenyl)-amide], the IC50 came out at 28 nM. As for `CNC(=O)c1c(NC(=O)c2nc(C3CC3)cnc2Nc2cncnc2)cnn1CC1CCOC1` (stereo not shown) [Example 286, 6-Cyclopropyl-3-(pyrimidin-5-ylamino)-pyrazine-2-carboxylic acid [5-methylcarbamoyl-1-(tetrahydro-furan-3-ylmethyl)-1H-pyrazol-4-yl]-amide], the figure is 43.2 nM; as for `CC(C)(O)CNC(=O)c1c(NC(=O)c2nc(C3CC3)cnc2Nc2cncnc2)cnn1CC1CCOC1` (stereo not shown) [Example 287, 6-Cyclopropyl-3-(pyrimidin-5-ylamino)-pyrazine-2-carboxylic acid [5-(2-hydroxy-2-methyl-propylcarbamoyl)-1-(tetrahydro-furan-3-ylmethyl)-1H-pyrazol-4-yl]-amide], 15.1 nM. As for `CNC(=O)c1cc(F)c(F)cc1NC(=O)c1nc(C2CC2)cnc1Nc1cncnc1` [Example 288, 6-Cyclopropyl-3-(pyrimidin-5-ylamino)-pyrazine-2-carboxylic acid (4,5-difluoro-2-methylcarbamoyl-phenyl)-amide], the figure is 0.8 nM.

For `CNC(=O)c1c(NC(=O)c2nc(N3CCCC3)cnc2Nc2cncnc2)cnn1C` [Example 289, 3-(Pyrimidin-5-ylamino)-6-pyrrolidin-1-yl-pyrazine-2-carboxylic acid (1-methyl-5-methylcarbamoyl-1H-pyrazol-4-yl)-amide], the IC50 came out at 24 nM. The value for `CNC(=O)c1cccc(F)c1NC(=O)c1nc(C2CC2)cnc1Nc1cncnc1` [Example 290, 6-Cyclopropyl-3-(pyrimidin-5-ylamino)-pyrazine-2-carboxylic acid (2-fluoro-6-methylcarbamoyl-phenyl)-amide] was 2.8 nM; that for `O=C(Nc1cc(F)c(F)cc1C(=O)N1CCC1)c1nc(C2CC2)cnc1Nc1cncnc1` [Example 291, 6-Cyclopropyl-3-(pyrimidin-5-ylamino)-pyrazine-2-carboxylic acid [2-(azetidine-1-carbonyl)-4,5-difluoro-phenyl]-amide] was 31.2 nM. The value for `CNC(=O)c1ccc(F)cc1NC(=O)c1nc(C2CC2)cnc1Nc1cncnc1` [Example 292, 6-Cyclopropyl-3-(pyrimidin-5-ylamino)-pyrazine-2-carboxylic acid (5-fluoro-2-methylcarbamoyl-phenyl)-amide] was 0.7 nM; that for `CC(C)(O)CNC(=O)c1cccc(F)c1NC(=O)c1nc(C2CC2)cnc1Nc1cncnc1` [Example 293, 6-Cyclopropyl-3-(pyrimidin-5-ylamino)-pyrazine-2-carboxylic acid [2-fluoro-6-(2-hydroxy-2-methyl-propylcarbamoyl)-phenyl]-amide] was 6 nM. Turning to `CN(C)C(=O)c1ccc(F)cc1NC(=O)c1nc(C2CC2)cnc1Nc1cncnc1` [Example 294, 6-Cyclopropyl-3-(pyrimidin-5-ylamino)-pyrazine-2-carboxylic acid (2-dimethylcarbamoyl-5-fluoro-phenyl)-amide], the IC50 is 19.3 nM. With `CC(C)(O)CNC(=O)c1cc(C(F)(F)F)ccc1NC(=O)c1nc(C2CC2)cnc1Nc1cncnc1` [Example 295, 6-Cyclopropyl-3-(pyrimidin-5-ylamino)-pyrazine-2-carboxylic acid [2-(2-hydroxy-2-methyl-propylcarbamoyl)-4-trifluoromethyl-phenyl]-amide], the IC50 came out at 2.3 nM.

With `CNC(=O)c1cc(C(F)(F)F)ccc1NC(=O)c1nc(C2CC2)cnc1Nc1cncnc1` [Example 296, 6-Cyclopropyl-3-(pyrimidin-5-ylamino)-pyrazine-2-carboxylic acid (2-methylcarbamoyl-4-trifluoromethyl-phenyl)-amide], the concentration for half-maximal inhibition (IC50) turned out to be 3.9 nM.

Regarding `CNC(=O)c1c(NC(=O)c2nc(N3CCOCC3)cnc2Nc2cncnc2)cnn1C` [Example 297, 6-Morpholin-4-yl-3-(pyrimidin-5-ylamino)-pyrazine-2-carboxylic acid (1-methyl-5-methylcarbamoyl-1H-pyrazol-4-yl)-amide], the 50% inhibitory concentration (IC50) worked out at 4.1 nM.

Take `CN(C)C(=O)c1cc(F)ccc1NC(=O)c1nc(C2CC2)cnc1Nc1cncnc1` [Example 298, 6-Cyclopropyl-3-(pyrimidin-5-ylamino)-pyrazine-2-carboxylic acid (2-dimethylcarbamoyl-4-fluoro-phenyl)-amide]: the IC50 worked out at 7.8 nM. On to `CNC(=O)c1c(F)cc(F)cc1NC(=O)c1nc(C2CC2)cnc1Nc1cncnc1` [Example 299, 6-Cyclopropyl-3-(pyrimidin-5-ylamino)-pyrazine-2-carboxylic acid (3,5-difluoro-2-methylcarbamoyl-phenyl)-amide], for which the IC50 was 0.3 nM.

For `CN(C)C(=O)c1c(F)cc(F)cc1NC(=O)c1nc(C2CC2)cnc1Nc1cncnc1` [Example 300, 6-Cyclopropyl-3-(pyrimidin-5-ylamino)-pyrazine-2-carboxylic acid (2-dimethylcarbamoyl-3,5-difluoro-phenyl)-amide], the IC50 came out at 16.7 nM. The value for `CC(C)(O)CNC(=O)c1ccc(F)cc1NC(=O)c1nc(C2CC2)cnc1Nc1cncnc1` [Example 301, 6-Cyclopropyl-3-(pyrimidin-5-ylamino)-pyrazine-2-carboxylic acid [5-fluoro-2-(2-hydroxy-2-methyl-propylcarbamoyl)-phenyl]-amide] was 0.4 nM; that for `O=C(Nc1cc(F)ccc1C(=O)N1CCC1)c1nc(C2CC2)cnc1Nc1cncnc1` [Example 302, 6-Cyclopropyl-3-(pyrimidin-5-ylamino)-pyrazine-2-carboxylic acid [2-(azetidine-1-carbonyl)-5-fluoro-phenyl]-amide] was 1 nM. As for `CN(C)C(=O)c1cccc(F)c1NC(=O)c1nc(C2CC2)cnc1Nc1cncnc1` [Example 303, 6-Cyclopropyl-3-(pyrimidin-5-ylamino)-pyrazine-2-carboxylic acid (2-dimethylcarbamoyl-6-fluoro-phenyl)-amide], the figure is 368 nM. The value for `CNC(=O)c1c(NC(=O)c2nc(N3CCC3)cnc2Nc2cncnc2)cnn1C` [Example 304, 6-Azetidin-1-yl-3-(pyrimidin-5-ylamino)-pyrazine-2-carboxylic acid (1-methyl-5-methylcarbamoyl-1H-pyrazol-4-yl)-amide] was 143 nM; that for `O=C(Nc1ccc(F)cc1C(=O)N1CCC1)c1nc(C2CC2)cnc1Nc1cncnc1` [Example 305, 6-Cyclopropyl-3-(pyrimidin-5-ylamino)-pyrazine-2-carboxylic acid [2-(azetidine-1-carbonyl)-4-fluoro-phenyl]-amide] was 4.5 nM. Regarding `CC(C)(O)CNC(=O)c1cc(F)ccc1NC(=O)c1nc(C2CC2)cnc1Nc1cncnc1` [Example 306, 6-Cyclopropyl-3-(pyrimidin-5-ylamino)-pyrazine-2-carboxylic acid [4-fluoro-2-(2-hydroxy-2-methyl-propylcarbamoyl)-phenyl]-amide], the concentration for half-maximal inhibition (IC50) is 1.4 nM. As for `CNC(=O)c1c(F)cccc1NC(=O)c1nc(C2CC2)cnc1Nc1cncnc1` [Example 307, 6-Cyclopropyl-3-(pyrimidin-5-ylamino)-pyrazine-2-carboxylic acid (3-fluoro-2-methylcarbamoyl-phenyl)-amide], the figure is 68.6 nM; as for `CN(C)C(=O)c1c(F)cccc1NC(=O)c1nc(C2CC2)cnc1Nc1cncnc1` [Example 308, 6-Cyclopropyl-3-(pyrimidin-5-ylamino)-pyrazine-2-carboxylic acid (2-dimethylcarbamoyl-3-fluoro-phenyl)-amide], 0.9 nM. Turning to `O=C(Nc1cccc(F)c1C(=O)N1CCC1)c1nc(C2CC2)cnc1Nc1cncnc1` [Example 309, 6-Cyclopropyl-3-(pyrimidin-5-ylamino)-pyrazine-2-carboxylic acid [2-(azetidine-1-carbonyl)-3-fluoro-phenyl]-amide], the concentration for half-maximal inhibition (IC50) was determined as 1.1 nM. The value for `CCN(C)c1cnc(Nc2cncnc2)c(C(=O)Nc2cnn(C)c2C(=O)NC)n1` [Example 311, 6-(Ethyl-methyl-amino)-3-(pyrimidin-5-ylamino)-pyrazine-2-carboxylic acid (1-methyl-5-methylcarbamoyl-1H-pyrazol-4-yl)-amide] was 20.5 nM; that for `CNC(=O)c1cc(F)ccc1NC(=O)c1nc(C2CC2)cnc1Nc1cncnc1` [Example 312, 6-Cyclopropyl-3-(pyrimidin-5-ylamino)-pyrazine-2-carboxylic acid (4-fluoro-2-methylcarbamoyl-phenyl)-amide] was 0.8 nM. The value for `CN(C)CCNC(=O)c1c(NC(=O)c2nc(C3CC3)cnc2Nc2cncnc2)cnn1C` [Example 313, 6-Cyclopropyl-3-(pyrimidin-5-ylamino)-pyrazine-2-carboxylic acid [5-(2-dimethylamino-ethylcarbamoyl)-1-methyl-1H-pyrazol-4-yl]-amide] was 52 nM; that for `CNC(=O)c1c(NC(=O)c2nc(C3CC3)ncc2Nc2cncnc2)cnn1C` [Example 314, 2-Cyclopropyl-5-(pyrimidin-5-ylamino)-pyrimidine-4-carboxylic acid (1-methyl-5-methylcarbamoyl-1H-pyrazol-4-yl)-amide] was 34.3 nM.
